Experiments:
BA/F3-BCL-2 cells = BA/F3-BCL-2 cells (Homo sapiens, UniProt P10415); experiment: BA/F3 cell proliferation assay, BCL-2 wild type; assay type: cell-based, Murine; conditions: 24 hrs treatment, 3% FBS, CellTiter-Glo, geometric mean of 3 experiments; read-out: Cellular proliferation assay (IC50, nM) Bcl-2 WT; BaF3 cell
Method: (§1) BA/F3 cell Proliferation Assay:
(§2) The cells were treated with a 10-point dilution series of compounds for 24 hrs. After the compound treatment, 30 μl of CellTiter-Glo reagent was added in each well. The effects on proliferation were determined using Cell TiterGlo reagent (Promega) according to the manufacturer's instructions. Luminescent signals were measured using PHERAstar FS plate reader (BMG Labtech). ICS50 values for cell viability were determined with GraphPad Prism software and were the geometric mean of 3 independent experiments.

[1] = tested on: RS4;11 (BCL-2 dependent acute lymphoblastic leukemia cell line); experiment: RS4;11 cell proliferation assay; assay type: cell-based; conditions: Homo sapiens, RS4-11, 48 hrs treatment, CellTiter-GLO, read-out: Cellular proliferation assay (IC50, nM) RS4
Method: RS4;11 Cell Proliferation Assay:
Each compound was serially diluted with 1 μM as the maximum concentration. To test the apoptotic effect of the compounds, the cells were seeded at 50,000 in 180 μl per well in 96-well plates and treated with 10-point dilution series of each compound for 48 hrs at 37° C. Cell viability was assessed after the treatment using CellTiter-GLO luminescent assay (Promega) according to the manufacturer's recommendations. Briefly, 30 μl of CellTiter-GLO reagent was added into 200 μl of cell culture, Mixture was agitated on an orbital shaker for 5 mins to ensure cell lysis followed by 7 mins incubation at room temperature to allow development and stabilization of luminescent signals, which corresponded to quantity of ATP and thus the quantity of metabolically active cells. Luminescent signals were measured using PHERAstar FS reader (BMG). Mean IC50 values for cell viability were determined with GraphPad Prism software.

[2] = target: recombinant human Bcl-2-G101V protein (Homo sapiens, UniProt P10415, G101V); experiment: Bcl-2-G101V TR-FRET assay; assay type: binding; conditions: TR-FRET, 0.1 nM Bcl-2-G101V, FITC labeled Bak peptide 5 nM; read-out: Biochemical assay (IC50, nM) Bcl-2 G101V
From the text: The IC50 for each compound was derived from fitting the data to the four-parameter logistic equation by Graphpad Prism software or Dotmatics.

[3] = tested on: Molt-4 (Bcl-xL-dependent ALL cell line); experiment: Molt-4 cell proliferation assay; assay type: cell-based; conditions: Homo sapiens, MOLT-4; CellTiter-GLO; read-out: Cellular proliferation assay (IC50, nM) Molt-4
From the text: Molt-4 Cell Proliferation Assay:
Each compound was serially diluted with 10 1M as the maximum concentration. The anti-proliferative IC50s of these compounds were similarly determined as a percentage of viable cells upon treatment compared to the untreated control using CellTiter-GLO luminescent assay.

[4] = target: Recombinant human Bcl-2 protein (Homo sapiens, UniProt P10415); experiment: Bcl-2 TR-FRET assay; assay type: binding; conditions: TR-FRET, 0.05 nM Bcl-2, FITC labeled Bak peptide 0.5 nM; read-out: Biochemical assay (IC50, nM) Bcl-2 WT
Method: Compounds disclosed herein were tested for blocking of Bcl-2 protein with its ligand in an assay based on Time-Resolved Fluorescence Resonance Energy Transfer (TR-FRET) methodology. Recombinant human 0.05 nM Bcl-2 protein was pre-incubated with a serial dilution of compounds disclosed herein (top final concentration is 1 uM or 0.1 uM or 0.02 uM or 0.01 uM, 10 points) at room temperature for 0.5 hour in an assay buffer containing 20 mM potassium phosphate buffer, pH 7.5, 50 mM NaCl, 1 mM EDTA, 0.05% Tween-20, 0.01% BSA. […] The inhibition percentage of Bcl-2 interaction with its ligand in presence of increasing concentrations of compounds was calculated based on the TR-FRET signals. The IC50 for each compound was derived from fitting the data to the four-parameter logistic equation by Graphpad Prism software or Dotmatics.

BA/F3-BCL-2 G101V cells = BA/F3-BCL-2 G101V cells (Homo sapiens, UniProt P10415, G101V, cells depend on it); experiment: BA/F3 cell proliferation assay, Bcl-2 G101V; assay type: cell-based, Murine; conditions: 24 hrs treatment, 3% FBS, CellTiter-Glo, geometric mean of 3 experiments; read-out: Cellular proliferation assay (IC50, nM) Bcl-2 G101V; BaF3 cell
Method: as §1, §2

IC50 (BA/F3-BCL-2 cells) [nM] | IC50 [1] [nM] | IC50 [2] [nM] | IC50 [3] [nM] | IC50 [4] [nM] | GI50 (BA/F3-BCL-2 G101V cells) [nM] | Compound
1 | 1.7 | 1.9 | 6730 | 0.04 | 15.5 | CC(C)c1ccccc1[C@@H]1CCCN1C1CC2(CCN(c3ccc(C(=O)NS(=O)(=O)c4ccc(NC[C@H]5CC[C@](C)(O)CC5)c([N+](=O)[O-])c4)c(N4CCCOc5nc6[nH]ccc6cc54)c3)CC2)C1 [Example B1]
0.82 | 1.7 | 1.8 | 5560 | 0.05 | 7.8 | CC(C)c1ccccc1[C@@H]1CCCN1C1CC2(CCN(c3ccc(C(=O)NS(=O)(=O)c4ccc(NCC5(F)CCOCC5)c([N+](=O)[O-])c4)c(N4CCCOc5nc6[nH]ccc6cc54)c3)CC2)C1 [Example B2, (S)-2-(3,4-dihydro-2H-pyrrolo[3′,2′:5,6]pyrido[2,3-b][1,4]oxazepin-1(7H)-yl)-N-((4-(((4-fluorotetrahydro-2H-pyran-4-yl)methyl)amino)-3-nitrophenyl)sulfonyl)-4-(2-(2-(2-isopropylphenyl)pyrrolidin 1-yl)-7-azaspiro[3,5]nonan-7-yl)benzamide]
2.8 | 5.5 | 2.4 | > 10000 | 0.094 | 39.1 | CC(C)c1ccccc1[C@@H]1CCCN1C1CC2(C1)CN(c1ccc(C(=O)NS(=O)(=O)c3ccc(NC[C@H]4CC[C@](C)(O)CC4)c([N+](=O)[O-])c3)c(N3CCCOc4nc5[nH]ccc5cc43)c1)C2 [Example B13, 2-(3,4-dihydro-2H-pyrrolo[3′,2′:5,6]pyrido[2,3-b][1,4]oxazepin-1(7H)-yl)-N-((4-((((1r,4r)-4-hydroxy-4-methylcyclohexyl)methyl)amino)-3-nitrophenyl)sulfonyl)-4-(6-((S)-2-(2-isopropylphenyl)pyrrolidin-1-yl)-2-azaspiro[3,3]heptan-2-yl)benzamide]
2.4 | 4.8 | 3.1 | > 10000 | 0.11 | 26.5 | CC(C)c1ccccc1[C@@H]1CCCN1C1CC2(C1)CN(c1ccc(C(=O)NS(=O)(=O)c3ccc(NCC4(F)CCOCC4)c([N+](=O)[O-])c3)c(N3CCCOc4nc5[nH]ccc5cc43)c1)C2 [Example B14, (S)-2-(3,4-dihydro-2H-pyrrolo[3′,2′:5,6]pyrido[2,3-b][1,4]oxazepin-1(7H)-yl)-N-((4-(((4-fluorotetrahydro-2H-pyran-4-yl)methyl)amino)-3-nitrophenyl)sulfonyl)-4-(6-(2-(2-isopropylphenyl)pyrrolidin-1-yl)-2-azaspiro[3.3]heptan-2-yl)benzamide]

Reference: patent US12516053B2, “Bcl-2 inhibitors” (BEIGENE, LTD., priority 2019, dated 2026)
